From a compilation of properties of binary mixtures (doi:10.1021/acs.jced.1c00111)

Assay: xn = mol fraction of the nth substance listed
Conditions: 100 kPa

## CC[NH+](C)CC.CS(=O)(=O)[O-] + O
298.15 K, x1 = 0.0155
  viscosity: 1.28 mPa·s
298.15 K, x1 = 0.0356
  viscosity: 2.02 mPa·s
298.15 K, x1 = 0.0571
  viscosity: 2.57 mPa·s
298.15 K, x1 = 0.0757
  viscosity: 3.43 mPa·s
298.15 K, x1 = 0.1234
  viscosity: 5.96 mPa·s
298.15 K, x1 = 0.1582
  viscosity: 8.21 mPa·s
298.15 K, x1 = 0.206
  viscosity: 11.6 mPa·s
298.15 K, x1 = 0.3246
  viscosity: 20 mPa·s
298.15 K, x1 = 0.5018
  viscosity: 42.1 mPa·s
298.15 K, x1 = 0.5783
  viscosity: 52.8 mPa·s
298.15 K, x1 = 0.7782
  viscosity: 90.5 mPa·s
303.15 K, x1 = 0.0155
  viscosity: 1.15 mPa·s
303.15 K, x1 = 0.0356
  viscosity: 1.84 mPa·s
303.15 K, x1 = 0.0571
  viscosity: 2.27 mPa·s
303.15 K, x1 = 0.0757
  viscosity: 2.99 mPa·s
303.15 K, x1 = 0.1234
  viscosity: 5.09 mPa·s
303.15 K, x1 = 0.1582
  viscosity: 6.94 mPa·s
303.15 K, x1 = 0.206
  viscosity: 9.76 mPa·s
303.15 K, x1 = 0.4263
  viscosity: 25.9 mPa·s
303.15 K, x1 = 0.5018
  viscosity: 34 mPa·s
303.15 K, x1 = 0.5783
  viscosity: 42.1 mPa·s
303.15 K, x1 = 0.7782
  viscosity: 70.3 mPa·s
308.15 K, x1 = 0.0356
  viscosity: 1.64 mPa·s
308.15 K, x1 = 0.0571
  viscosity: 2 mPa·s
308.15 K, x1 = 0.0757
  viscosity: 2.64 mPa·s
308.15 K, x1 = 0.0967
  viscosity: 3.45 mPa·s
308.15 K, x1 = 0.1234
  viscosity: 4.39 mPa·s
308.15 K, x1 = 0.1582
  viscosity: 5.93 mPa·s
308.15 K, x1 = 0.206
  viscosity: 8.3 mPa·s
308.15 K, x1 = 0.3246
  viscosity: 13.9 mPa·s
308.15 K, x1 = 0.4263
  viscosity: 22 mPa·s
308.15 K, x1 = 0.6771
  viscosity: 44.2 mPa·s
313.15 K, x1 = 0.0155
  viscosity: 0.957 mPa·s
313.15 K, x1 = 0.0356
  viscosity: 1.47 mPa·s
313.15 K, x1 = 0.0757
  viscosity: 2.34 mPa·s
313.15 K, x1 = 0.0967
  viscosity: 3.05 mPa·s
313.15 K, x1 = 0.1234
  viscosity: 3.82 mPa·s
313.15 K, x1 = 0.1582
  viscosity: 5.13 mPa·s
313.15 K, x1 = 0.206
  viscosity: 7.11 mPa·s
313.15 K, x1 = 0.5018
  viscosity: 22.8 mPa·s
313.15 K, x1 = 0.5783
  viscosity: 28.3 mPa·s
313.15 K, x1 = 0.6771
  viscosity: 36 mPa·s
313.15 K, x1 = 0.7782
  viscosity: 44.9 mPa·s
318.15 K, x1 = 0.0155
  viscosity: 0.876 mPa·s
318.15 K, x1 = 0.0356
  viscosity: 1.34 mPa·s
318.15 K, x1 = 0.0571
  viscosity: 1.61 mPa·s
318.15 K, x1 = 0.0757
  viscosity: 2.09 mPa·s
318.15 K, x1 = 0.0967
  viscosity: 2.7 mPa·s
318.15 K, x1 = 0.1234
  viscosity: 3.35 mPa·s
318.15 K, x1 = 0.206
  viscosity: 6.12 mPa·s
318.15 K, x1 = 0.3246
  viscosity: 10.1 mPa·s
318.15 K, x1 = 0.4263
  viscosity: 15.6 mPa·s
318.15 K, x1 = 0.5018
  viscosity: 19.4 mPa·s
318.15 K, x1 = 0.5783
  viscosity: 23.6 mPa·s
318.15 K, x1 = 0.6771
  viscosity: 29.8 mPa·s
318.15 K, x1 = 0.7782
  viscosity: 36.5 mPa·s
323.15 K, x1 = 0.0155
  viscosity: 0.806 mPa·s
323.15 K, x1 = 0.0356
  viscosity: 1.22 mPa·s
323.15 K, x1 = 0.0571
  viscosity: 1.45 mPa·s
323.15 K, x1 = 0.0757
  viscosity: 1.87 mPa·s
323.15 K, x1 = 0.0967
  viscosity: 2.42 mPa·s
323.15 K, x1 = 0.1234
  viscosity: 2.97 mPa·s
323.15 K, x1 = 0.1582
  viscosity: 3.92 mPa·s
323.15 K, x1 = 0.206
  viscosity: 5.3 mPa·s
323.15 K, x1 = 0.3246
  viscosity: 8.94 mPa·s
323.15 K, x1 = 0.4263
  viscosity: 13.2 mPa·s
323.15 K, x1 = 0.5018
  viscosity: 16.5 mPa·s
323.15 K, x1 = 0.5783
  viscosity: 20 mPa·s
323.15 K, x1 = 0.6771
  viscosity: 24.8 mPa·s
323.15 K, x1 = 0.7782
  viscosity: 30 mPa·s
328.15 K, x1 = 0.0155
  viscosity: 0.751 mPa·s
328.15 K, x1 = 0.0356
  viscosity: 1.13 mPa·s
328.15 K, x1 = 0.0571
  viscosity: 1.31 mPa·s
328.15 K, x1 = 0.0757
  viscosity: 1.68 mPa·s
328.15 K, x1 = 0.0967
  viscosity: 2.17 mPa·s
328.15 K, x1 = 0.1234
  viscosity: 2.64 mPa·s
328.15 K, x1 = 0.3246
  viscosity: 7.81 mPa·s
328.15 K, x1 = 0.4263
  viscosity: 11.5 mPa·s
328.15 K, x1 = 0.5783
  viscosity: 17 mPa·s
328.15 K, x1 = 0.6771
  viscosity: 21.1 mPa·s
333.15 K, x1 = 0.0155
  viscosity: 0.693 mPa·s
333.15 K, x1 = 0.0356
  viscosity: 1.04 mPa·s
333.15 K, x1 = 0.0571
  viscosity: 1.2 mPa·s
333.15 K, x1 = 0.0757
  viscosity: 1.53 mPa·s
333.15 K, x1 = 0.1234
  viscosity: 2.36 mPa·s
333.15 K, x1 = 0.1582
  viscosity: 3.08 mPa·s
333.15 K, x1 = 0.206
  viscosity: 4.03 mPa·s
333.15 K, x1 = 0.4263
  viscosity: 9.9 mPa·s
333.15 K, x1 = 0.5783
  viscosity: 14.5 mPa·s
333.15 K, x1 = 0.6771
  viscosity: 18.1 mPa·s
333.15 K, x1 = 0.7782
  viscosity: 22.2 mPa·s
338.15 K, x1 = 0.0155
  viscosity: 0.643 mPa·s
338.15 K, x1 = 0.0356
  viscosity: 0.953 mPa·s
338.15 K, x1 = 0.0757
  viscosity: 1.39 mPa·s
338.15 K, x1 = 0.0967
  viscosity: 1.79 mPa·s
338.15 K, x1 = 0.1234
  viscosity: 2.12 mPa·s
338.15 K, x1 = 0.1582
  viscosity: 2.75 mPa·s
338.15 K, x1 = 0.206
  viscosity: 3.55 mPa·s
338.15 K, x1 = 0.7782
  viscosity: 18.7 mPa·s
